Patent US20240148821A1, “PHARMACEUTICAL USE OF CYCLIC PEPTIDE COMPOUND” (CHUGAI SEIYAKU KABUSHIKI KAISHA, priority 2021, published 2024)
Numbered stars: 1 amine (or outer) side, 2 acyl side, 3 side chain; on linkers, the order of the positions; unused ones are H or OH. Bridge positions count the residues as written; N and C are the ends. Square brackets hold non-standard residues; d marks the D form. Peptide text beside a SMILES is read from it. * marks the point of attachment. hPhe(3-Cl-4-CF3) = N[C@@H](CCc1ccc(C(F)(F)F)c(Cl)c1)C(=O)O; hPhe(3-F,4-CF3) = N[C@@H](CCc1ccc(C(F)(F)F)c(F)c1)C(=O)O; X15 = O=C([C@H](CCc1cc(Cl)c(Cl)c(Cl)c1)N[*:1])[*:2]; hPhe(4-CF3) = N[C@@H](CCc1ccc(C(F)(F)F)cc1)C(=O)O; ACHC(1R,2R) = O=C([C@@H]1CCCC[C@H]1N[*:1])[*:2]; NMePhe(4-Cl) = CN[C@@H](Cc1ccc(Cl)cc1)C(=O)O; NMePhe(2-F) = CN[C@@H](Cc1ccccc1F)C(=O)O; Gly(Nα-CH2(4-Pyr)) = O=C(O)CNCc1ccncc1; NMeGly(cPent) = CN[C@H](C(=O)O)C1CCCC1; mXylylene = c1cc(C[*:1])cc(C[*:2])c1; NMeGly(cBu) = CN[C@H](C(=O)O)C1CCC1; NMeCha = CN[C@@H](CC1CCCCC1)C(=O)O; X124 = O=C([C@H]1COCCN1[*:1])[*:2]; Hyp = O=C(O)[C@@H]1C[C@@H](O)CN1; NMeChg = CN[C@H](C(=O)O)C1CCCCC1; NMeF = CN[C@@H](Cc1ccccc1)C(=O)O; NMeI = CC[C@H](C)[C@H](NC)C(=O)O; NMeD = CN[C@@H](CC(=O)O)C(=O)O; NMeL = CN[C@@H](CC(C)C)C(=O)O; dNMeAbu = CC[C@@H](NC)C(=O)O; NMeNva = CCC[C@H](NC)C(=O)O; NMeV = CN[C@H](C(=O)O)C(C)C; d(β3hA) = C[C@@H](N)CC(=O)O; NMeS = CN[C@@H](CO)C(=O)O; dPip = O=C(O)[C@H]1CCCCN1; NMeA = CN[C@@H](C)C(=O)O; Piperidide = C1CCN(*)CC1; Pyrrolidide = C1CCN(*)C1; Ac5c = NC1(C(=O)O)CCCC1; Aze = O=C(O)[C@@H]1CCN1; Isopentyl = CC(C)CC*; Sar = CNCC(=O)O

What was measured:
[1] = biological target: protein-protein interaction between Kras and SOS1 (biotin-tagged human Kras loaded with GDP, His-tagged human SOS1) (Homo sapiens (Human), UniProt P01116, G12D); experiment: Protein-protein interaction inhibition between Kras and SOS1 (KrasG12D-SOS PPI) using AlphaScreen; assay type: biochemical; conditions: AlphaScreen; biotin-tagged human Kras loaded with GDP, His-tagged human SOS1; read-out: KRAS G12D-SOS PPI IC50;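 also: kras produced in E. coli, Ni-coupled donor beads and streptavidin acceptor beads, excitation 680 nm with emission detected at 520–620 nm via singlet oxygen transfer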
[2] = tested on: Human pancreatic cancer cell line AsPC-1 (G12D mutation Kras); experiment: AsPC-1 cell growth inhibition (AsPC-1 CGI); assay type: cell-based; conditions: read-out: AsPC-1 cell growth inhibition, 50% growth inhibitory concentration (IC50 value); 96 hours, CellTiter-Glo, values classified in ranges

SMILES | IC50 [1] | IC50 [2]
CC[C@H](C)[C@@H]1NC(=O)[C@H](C)N(C)C(=O)C[C@@H](C(=O)N2CCCCC2)N(C)C(=O)[C@H](C(C)C)N(C)C(=O)C2(CCCC2)NC(=O)[C@@H]2CCCN2C(=O)[C@H](CCc2ccc(C(F)(F)F)c(Cl)c2)NC(=O)[C@H]2CCCCN2C(=O)[C@H](CC2CCCCC2)N(C)C(=O)[C@@H]2CCCN2C(=O)CN(C)C1=O [Compound 823] ([NMeA]I[Sar]P[NMeCha][dPip][hPhe(3-Cl-4-CF3)]P[Ac5c][NMeV][NMeD]-Piperidide; lactam N-11) | 16 nM | > 500 nM
CC[C@H](C)[C@@H]1NC(=O)[C@H](C)N(C)C(=O)C[C@@H](C(=O)N2CCCCC2)N(C)C(=O)[C@H](C(C)C)N(C)C(=O)C2(CCCC2)NC(=O)[C@@H]2CCCN2C(=O)[C@H](CCc2ccc(C(F)(F)F)c(Cl)c2)NC(=O)CN(C)C(=O)[C@H](CC2CCCCC2)N(C)C(=O)[C@@H]2CCN2C(=O)[C@H](C)N(C)C1=O [Compound 1562] ([NMeA]I[NMeA][Aze][NMeCha][Sar][hPhe(3-Cl-4-CF3)]P[Ac5c][NMeV][NMeD]-Piperidide; lactam N-11) | 4.8 nM | > 500 nM
CC[C@@H]1C(=O)NC2(CCCC2)C(=O)N(C)[C@@H](C2CCCCC2)C(=O)N(C)[C@H](C(=O)N2CCCCC2)CC(=O)N(C)[C@@H](CC(C)C)C(=O)N[C@@H]([C@@H](C)CC)C(=O)N(C)CC(=O)N(C)CC(=O)N(C)[C@@H](CC2CCCCC2)C(=O)N(C)CC(=O)N[C@@H](CCc2ccc(C(F)(F)F)c(Cl)c2)C(=O)N1C [Compound 1435] ([NMeL]I[Sar][Sar][NMeCha][Sar][hPhe(3-Cl-4-CF3)][dNMeAbu][Ac5c][NMeChg][NMeD]-Piperidide; lactam N-11) | 7.4 nM | > 500 nM
CC[C@H](C)[C@@H]1NC(=O)[C@H](C)N(C)C(=O)C[C@@H](C(=O)N2CCCCC2)N(C)C(=O)[C@H](C(C)C)N(C)C(=O)C2(CCCC2)NC(=O)[C@H](Cc2ccccc2F)N(C)C(=O)[C@H](CCc2ccc(C(F)(F)F)c(Cl)c2)NC(=O)CN(C)C(=O)[C@H](CC2CCCCC2)N(C)C(=O)CN(C)C(=O)CN(C)C1=O [Compound 492] ([NMeA]I[Sar][Sar][NMeCha][Sar][hPhe(3-Cl-4-CF3)][NMePhe(2-F)][Ac5c][NMeV][NMeD]-Piperidide; lactam N-11) | 12 nM | > 500 nM
CCC[C@H]1C(=O)N[C@@H]([C@@H](C)CC)C(=O)N(C)[C@@H](C)C(=O)N2CC[C@H]2C(=O)N(C)[C@@H](CC2CCCCC2)C(=O)N(C)CC(=O)N[C@@H](CCc2ccc(C(F)(F)F)c(Cl)c2)C(=O)N2CCC[C@H]2C(=O)NC2(CCCC2)C(=O)N(C)[C@@H]([C@@H](C)CC)C(=O)N(C)[C@H](C(=O)N2CCCCC2)CC(=O)N1C [Compound 1132] ([NMeNva]I[NMeA][Aze][NMeCha][Sar][hPhe(3-Cl-4-CF3)]P[Ac5c][NMeI][NMeD]-Piperidide; lactam N-11) | 1.3 nM | ≤ 20 nM
CC[C@H](C)[C@@H]1NC(=O)[C@H](CC(C)C)N(C)C(=O)C[C@@H](C(=O)N2CCCCC2)N(C)C(=O)[C@H](CC(C)C)N(C)C(=O)C2(CCCC2)NC(=O)[C@@H]2C[C@@H](OCc3cccc(C)c3)CN2C(=O)[C@H](CCc2ccc(C(F)(F)F)c(F)c2)NC(=O)CN(C)C(=O)[C@H](CC2CCCCC2)N(C)C(=O)CN(C)C(=O)CN(C)C1=O [Compound 2125] ([NMeL]I[Sar][Sar][NMeCha][Sar][hPhe(3-F,4-CF3)][Hyp](mXylylene)[Ac5c][NMeL][NMeD]-Piperidide; lactam N-11) | 16 nM | –
CC[C@H](C)[C@@H]1NC(=O)[C@H](CC(C)C)N(C)C(=O)C[C@@H](C(=O)N2CCCCC2)N(C)C(=O)[C@H](C(C)C)N(C)C(=O)C2(CCCC2)NC(=O)[C@@H]2CCCN2C(=O)[C@H](CCc2ccc(C(F)(F)F)c(Cl)c2)NC(=O)CN(C)C(=O)[C@H](C(C)C)N(C)C(=O)[C@@H]2CCN2C(=O)[C@H](C)N(C)C1=O [Compound 1737] ([NMeL]I[NMeA][Aze][NMeV][Sar][hPhe(3-Cl-4-CF3)]P[Ac5c][NMeV][NMeD]-Piperidide; lactam N-11) | 8.3 nM | –
CC[C@H](C)[C@@H]1NC(=O)[C@H](C)N(C)C(=O)C[C@@H](C(=O)N2CCCCC2)N(C)C(=O)[C@H](C2CCCCC2)N(C)C(=O)C2(CCCC2)NC(=O)[C@@H]2CCCN2C(=O)[C@H](CCc2cc(Cl)c(Cl)c(Cl)c2)NC(=O)CN(C)C(=O)[C@H](CC2CCCCC2)N(C)C(=O)CN(C)C(=O)CN(C)C1=O [Compound 2059, (3S,9S,18S,21S,25S,28S,34S)-28-cyclohexyl-9-(cyclohexylmethyl)-7,10,13,16,21,22,26,29-octamethyl-18-[(1S)-1-methylpropyl]-25-(piperidine-1-carbonyl)-3-[2-(3,4,5-trichlorophenyl)ethyl]spiro[1,4,7,10,13,16,19,22,26,29,32-undecazabicyclo[32.3.0]heptatriacontane-31,1′-cyclopentane]-2,5,8,11,14,17,20,23,27,30,33-undecone] ([NMeA]I[Sar][Sar][NMeCha][Sar][X15]P[Ac5c][NMeChg][NMeD]-Piperidide; lactam N-11) | 0.96 nM | –
CC[C@H](C)[C@@H]1NC(=O)[C@H](C2CCC2)N(C)C(=O)C[C@@H](C(=O)N2CCCCC2)N(C)C(=O)[C@H](C(C)C)N(C)C(=O)C2(CCCC2)NC(=O)[C@@H]2CCCN2C(=O)[C@H](CCc2ccc(C(F)(F)F)c(Cl)c2)NC(=O)CN(C)C(=O)[C@H](CC2CCCCC2)N(C)C(=O)[C@@H]2CCN2C(=O)[C@H](C)N(C)C1=O [Compound 1036] ([NMeGly(cBu)]I[NMeA][Aze][NMeCha][Sar][hPhe(3-Cl-4-CF3)]P[Ac5c][NMeV][NMeD]-Piperidide; lactam N-11) | 7.7 nM | –
CC[C@H](C)[C@@H]1NC(=O)[C@H](CC(C)C)N(C)C(=O)C[C@@H](C(=O)N2CCCC2)N(C)C(=O)[C@H]([C@@H](C)CC)N(C)C(=O)C2(CCCC2)NC(=O)[C@@H]2CCCN2C(=O)[C@H](CCc2ccc(C(F)(F)F)c(F)c2)NC(=O)CN(C)C(=O)[C@H](C2CCCC2)N(C)C(=O)[C@@H]2CCN2C(=O)[C@H](C)N(C)C1=O [Compound 313] ([NMeL]I[NMeA][Aze][NMeGly(cPent)][Sar][hPhe(3-F,4-CF3)]P[Ac5c][NMeI][NMeD]-Pyrrolidide; lactam N-11) | 4.2 nM | –
CC[C@H](C)[C@@H]1NC(=O)[C@H](CC(C)C)N(C)C(=O)C[C@@H](C(=O)N2CCCCC2)N(C)C(=O)[C@H](C2CCCCC2)N(C)C(=O)C2(CCCC2)NC(=O)[C@H]2COCCN2C(=O)[C@H](CCc2ccc(C(F)(F)F)c(Cl)c2)NC(=O)CN(C)C(=O)[C@H](CC2CCCCC2)N(C)C(=O)CN(C)C(=O)CN(C)C1=O [Compound 1445] ([NMeL]I[Sar][Sar][NMeCha][Sar][hPhe(3-Cl-4-CF3)][X124][Ac5c][NMeChg][NMeD]-Piperidide; lactam N-11) | 250 nM | –
CC[C@H](C)[C@@H]1NC(=O)[C@H](C)N(C)C(=O)C[C@@H](C)NC(=O)[C@H](CC(C)C)N(C)C(=O)[C@H](Cc2ccccc2)N(C)C(=O)[C@@H]2C[C@@H](O)CN2C(=O)[C@H](CCc2ccc(C(F)(F)F)cc2)NC(=O)CN(C)C(=O)[C@H](Cc2ccc(Cl)cc2)N(C)C(=O)CN(C)C(=O)CN(C)C1=O [Compound 1375] (cyclo([Hyp][NMeF][NMeL][d(β3hA)][NMeA]I[Sar][Sar][NMePhe(4-Cl)][Sar][hPhe(4-CF3)])) | 9.3 nM | –
CC[C@H](C)[C@@H]1NC(=O)[C@H](CC(C)C)N(C)C(=O)C[C@@H](C(=O)N2CCCCC2)N(C)C(=O)[C@H](C(C)C)N(C)C(=O)C2(CCCC2)NC(=O)[C@@H]2CCCN2C(=O)[C@H](CCc2ccc(C(F)(F)F)c(Cl)c2)NC(=O)CN(C)C(=O)[C@H](COCCC(C)C)N(C)C(=O)[C@@H]2CCN2C(=O)[C@H](C)N(C)C1=O [Compound 470] ([NMeL]I[NMeA][Aze][NMeS](Isopentyl)[Sar][hPhe(3-Cl-4-CF3)]P[Ac5c][NMeV][NMeD]-Piperidide; lactam N-11) | 2.2 nM | –
CC[C@H](C)[C@@H]1NC(=O)[C@H](CC(C)C)N(C)C(=O)C[C@@H](C)NC(=O)[C@H](CC(C)C)N(C)C(=O)C2(CCCC2)NC(=O)[C@H](CC(C)C)N(C)C(=O)[C@H](CCc2ccc(C(F)(F)F)cc2)NC(=O)CN(C)C(=O)[C@H](Cc2ccc(Cl)cc2)N(C)C(=O)CN(C)C(=O)CN(C)C1=O [Compound 843] (cyclo([Ac5c][NMeL][d(β3hA)][NMeL]I[Sar][Sar][NMePhe(4-Cl)][Sar][hPhe(4-CF3)][NMeL])) | 49 nM | –
CC[C@H](C)[C@@H]1NC(=O)[C@H](CC(C)C)N(C)C(=O)C[C@@H](C(=O)N2CCCCC2)N(C)C(=O)[C@H](C2CCCCC2)N(C)C(=O)C2(CCCC2)NC(=O)CN(Cc2ccncc2)C(=O)[C@H](CCc2ccc(C(F)(F)F)c(Cl)c2)NC(=O)CN(C)C(=O)[C@H](CC2CCCCC2)N(C)C(=O)CN(C)C(=O)CN(C)C1=O [Compound 2033] ([NMeL]I[Sar][Sar][NMeCha][Sar][hPhe(3-Cl-4-CF3)][Gly(Nα-CH2(4-Pyr))][Ac5c][NMeChg][NMeD]-Piperidide; lactam N-11 (inferred); C-terminus assumed) | 0.65 nM | –
CC[C@H](C)[C@@H]1NC(=O)[C@H](C(C)C)NC(=O)[C@@H]2CCCC[C@H]2NC(=O)[C@H](CC(C)C)N(C)C(=O)C2(CCCC2)NC(=O)[C@H](CC(C)C)N(C)C(=O)[C@H](CCc2ccc(C(F)(F)F)cc2)NC(=O)CN(C)C(=O)[C@H](Cc2ccc(Cl)cc2)N(C)C(=O)CN(C)C(=O)CN(C)C1=O [Compound 1126] (cyclo([Ac5c][NMeL][ACHC(1R,2R)]VI[Sar][Sar][NMePhe(4-Cl)][Sar][hPhe(4-CF3)][NMeL])) | 250 nM | –
